Results on ten compounds are retold here after patent US4791139A, “Diphenyl ether derivatives and their use as insecticides” (Imperial Chemical Industries PLC, priority 1986, dated 1988).

Molecules are shown by their SMILES.

Holding throughout (assay type): in vivo
Test [1] has as its system Tetranychus urticae (spider mites - adult). Kind of test: Contact test, spider mites - adult (TUa), French bean leaf. The settings on record: 72 h, 3 days, read-out: TUA grading of mortality. In short, it runs like this:
(§1)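 Mortality scored 1–7 days post-treatment. Test liquids at 100–500 ppm (acetone stock diluted into water + 0.1% w/w wetting agent) applied to pests, their plant/food medium, or both.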

Test [2] has as its system Tetranychus urticae (spider mites - ova). Kind of test: Contact test, spider mites - ova (TUe), French bean leaf. The settings on record: 144 h, 6 days, read-out: TUE grading of mortality. A digest of the protocol:
as §1

The test system of the next test is Myzus persicae (aphids). Kind of test: Contact test, aphids (MP), Chinese Cabbage leaf. The following applies: 72 h, 3 days, read-out: MP grading of mortality. In short, it runs like this:
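Aphids on a host plant and/or the plant itself were treated with 100–500 ppm of product, applied from acetone diluted in water containing 0.1% SYNPERONIC NX wetting agent. Mortality was scored usually one to seven days after treatment.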

Test [3] relates to Nilaparvata lugens (brown plant hopper - nymphs). Kind of test: Contact test, brown plant hopper - nymphs (NL), Rice plant. The following applies: 72 h, 3 days, read-out: NL grading of mortality. A digest of the protocol:
as §1

For test [4], the system named is Musca domestica (houseflies - adults). Kind of test: Knockdown test, houseflies - adults (MD/KD), Cotton wool/sugar. The following applies: 4 hours, read-out: MD/KD grading of knockdown. A digest of the protocol:
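Product was dissolved in acetone and diluted with water containing 0.1% wetting agent to 100–500 ppm. The flies and/or their food medium were treated with the preparation. Mortality was scored 1–7 days after treatment, with an additional knockdown assessment for houseflies.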

Test [5] has the same test system. Kind of test: Contact test, houseflies - adults (MD), Cotton wool/sugar. The settings on record: 24 h, 1 day, read-out: MD grading of mortality. In short, it runs like this:
as §1

For test [6], the system named is Blattella germanica (cockroach nymphs). Kind of test: Residual test, cockroach nymphs (BG), Plastic pot. The settings on record: 72 h, 3 days, read-out: BG grading of mortality. In short, it runs like this:
as §1

Test [7] relates to Heliothis virescens (tobacco budworm - larvae). Kind of test: Residual test, tobacco budworm - larvae (HV), Cotton leaf. The following applies: 72 h, read-out: HV grading of mortality. A digest of the protocol:
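Products applied as acetone solutions diluted in water with 0.1% wetting agent, at 100–500 ppm; pests on host plant or food, with pests and/or medium treated. Mortality or knockdown scored 1–7 days after treatment and graded A (80–100%), B (50–79%) or C (<50%).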

The subject of test [8] is Spodoptera exigua (lesser army worm - larvae). Kind of test: Residual test, lesser army worm - larvae (SP), Cotton leaf. The settings on record: 72 h, 3 days, read-out: SP grading of mortality. A digest of the protocol: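 Compound dissolved in acetone and diluted in water with 0.1% Synperonic NX wetting agent to 100–500 ppm. Pests on host plant or food, with pests and/or medium treated. Mortality assessed 1–7 days after treatment and graded A (80–100%), B (50–79%) or C (<50%).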

Test [9] concerns Diabrotica balteata (rootworm larvae). Kind of test: Residual test, rootworm larvae (DB), Filter paper/maize seed. The settings on record: 72 h, 3 days, read-out: DB grading of mortality. A digest of the protocol:
as §1

Test [10] has as its system Meloidogyne incognita (Tomato root knot eelworm - larvae). Kind of test: Residual test, Tomato root knot eelworm - larvae (MI), Semi in-vitro. The settings on record: 168 h, application rate is half that recorded, 7 days, read-out: MI grading of mortality; for mortality at 125 µg/mL: rate 250 ppm; for mortality at 250 µg/mL: rate column 500 ppm.

What is called mortality is the share of the test organisms that died. For the compound `FC(F)(F)Oc1ccc(C(Cl)(CCCc2cccc(Oc3ccccc3)c2)C(F)(F)F)cc1` (racemic) [Compound 62, 1,1,1-trifluoro-2-chloro-2-(4-trifluoromethoxyphenyl)-5-(3-phenoxyphenyl)pentane], the mortality at 250 ppm (in test [1]; in [2]; in the test with Myzus persicae (aphids); in test [3]; in [5]; in test [6]) was below 50% in each case. The mortality at 250 ppm in test [7], in test [8] and in test [9] was below 50% each time. The pest or weed control at 250 ppm in test [4] was below 50%. In addition, the mortality at 125 µg/mL in [10] was below 50%.

On to `FC(F)C(F)(F)Oc1ccc(C(CCCc2cccc(Oc3ccccc3)c2)C(F)(F)F)cc1` (racemic) [Compound 63, 1,1,1-trifluoro-2-[4-(1,1,2,2-tetrafluoroethoxy)phenyl]-5-(3-phenoxyphenyl)pentane], for which the mortality at 500 ppm (in test [1]; in test [2]; with Myzus persicae (aphids); in [3]; in test [5]; in [6]) was 80 to 100% throughout. The mortality at 500 ppm in [7], in [8] and in test [9] was 80 to 100% each time. For the same compound, the pest or weed control at 500 ppm in test [4] lay within 80 to 100%. Moreover, the mortality at 250 µg/mL in test [10] was below 50%.

Turning to `CCOc1c(F)cc(C(CCCc2ccc(F)c(Oc3ccccc3)c2)C(F)(F)F)cc1F` (racemic) [Compound 64, 1,1,1-Trifluoro-2-(3,5-difluoro-4-ethoxyphenyl)-5-(4-fluoro-3-phenoxyphenyl)pentane], the mortality at 500 ppm (in test [1]; in [2]; in the test with Myzus persicae (aphids); in test [3]; in [5]; in test [6]) was 80 to 100% in each case. Moreover, the mortality at 500 ppm was in the range of 80 to 100% in test [7], 80 to 100% in test [8] and 50 to 79% in [9]. Moreover, the pest or weed control at 500 ppm in [4] was in the range of 80 to 100%. In test [10], the mortality at 250 µg/mL is below 50%.

Regarding `FC(F)(F)C(=CCCc1cccc(Oc2ccccc2)c1)c1ccc2c(c1)CCC2` [Compound 48, 1,1,1-Trifluoro-2-(5-indanyl)-5-(3-phenoxyphenyl)pent-2-ene], the mortality at 250 ppm is below 50% in [1]; below 50% in test [2]; below 50% with Myzus persicae (aphids); below 50% in test [3]; below 50% in test [5]; 50 to 79% in test [6]. In addition, the mortality at 250 ppm was below 50% in test [7], below 50% in test [8] and 50 to 79% in test [9]. In test [4], the pest or weed control at 250 ppm is below 50%. Moreover, the mortality at 125 µg/mL in test [10] was below 50%.

Take `CCOc1ccc(C(CC=Cc2c(F)c(F)c(F)c(F)c2F)C(F)(F)F)cc1` (centres unmarked) [Compound 42, 1,1,1-Trifluoro-2-(4-ethoxyphenyl)-5-(pentafluorophenyl)pent-4-ene]: the mortality at 500 ppm (in test [1]; in [2]; in the test on Myzus persicae (aphids); in test [3]; in test [5]; in test [6]) was below 50% in each case. The mortality at 500 ppm in test [7] was below 50%; in test [8], below 50%; in test [9] it was 80 to 100%. For the same compound, the pest or weed control at 500 ppm in test [4] was below 50%. The mortality at 250 µg/mL in test [10] is below 50%.

Regarding `CCOc1ccc(C(=CC=Cc2cccc(Oc3ccccc3)c2)C(F)F)cc1` [Compound 65, 1,1-Difluoro-2-(4-ethoxyphenyl)-5-(3-phenoxyphenyl)penta-2,4-diene], the mortality at 500 ppm (in test [1]; in test [2]; in the test with Myzus persicae (aphids); in [3]; in test [5]; in test [6]) was below 50% each time. For the same compound, the mortality at 500 ppm in test [7], in test [8] and in test [9] was below 50% in each case. Further, the pest or weed control at 500 ppm in test [4] was below 50%. The mortality at 250 µg/mL in test [10] was below 50%.

Turning to `COc1ccc(C(=CCCc2cccc(Oc3ccccc3)c2)C(F)(F)F)cc1` [Compound 46, 1,1,1-Trifluoro-2-(4-methoxyphenyl)-5-(3-phenoxyphenyl)pent-2-ene], the mortality at 500 ppm (in test [1]; in test [2]; in the test on Myzus persicae (aphids); in test [3]; in test [5]; in test [6]) was below 50% in each case. The mortality at 500 ppm in test [7] was 80 to 100%; in test [8], below 50%; in [9] it was below 50%. Besides, the pest or weed control at 500 ppm in test [4] is below 50%. Besides, in test [10], the mortality at 250 µg/mL was below 50%.

With `CCOc1ccc(C(=CCCc2cccc(Oc3ccccc3)c2)C(F)(F)F)cc1F` [Compound 50, 1,1,1-Trifluoro-2-(3-fluoro-4-ethoxyphenyl)-5-(3-phenoxyphenyl)-pent-2-ene], the mortality at 450 ppm in test [1] (450 ppm) is below 50%; in test [2] (450 ppm) it was below 50%; with Myzus persicae (aphids) (450 ppm), 80 to 100%; in test [3] (450 ppm) it was below 50%; in [5] (450 ppm), 80 to 100%; in test [6] (450 ppm), 80 to 100%. For the same compound, the mortality at 450 ppm in test [7], in test [8] (450 ppm) and in test [9] (450 ppm) was 80 to 100% each time. In addition, the pest or weed control at 450 ppm in [4] (450 ppm) fell in the range of 80 to 100%. For the same compound, the mortality at 225 µg/mL in test [10] (rate column 450 ppm) is below 50%.

In the case of `CCOc1ccc(C(CCCc2c(F)c(F)c(F)c(F)c2F)C(F)(F)F)cc1` (racemic) [Compound 43, 1,1,1-Trifluoro-2-(4-ethoxyphenyl)-5-(pentafluorophenyl)pentane], the mortality at 500 ppm in test [1] was below 50%; in test [2], below 50%; in the test on Myzus persicae (aphids), below 50%; in test [3], below 50%; in test [5], 50 to 79%; in test [6], 50 to 79%. In addition, the mortality at 500 ppm in test [7] was below 50%; in test [8], 80 to 100%; in test [9], 80 to 100%. Besides, the pest or weed control at 500 ppm in test [4] lay within 50 to 79%. Further, in test [10], the mortality at 250 µg/mL was below 50%.

As for `CCOc1ccc(C(CCCc2cccc(Oc3ccccc3)c2)C(F)(F)F)cc1F` (racemic) [Compound 56, 1,1,1-Trifluoro-2-(3-fluoro-4-ethoxyphenyl)-5-(3-phenoxyphenyl)pentane], the mortality at 500 ppm (in test [1]; in test [2]; in the test on Myzus persicae (aphids); in test [3]; in test [5]; in test [6]) was 80 to 100% in each case. Besides, the mortality at 500 ppm in test [7], in test [8] and in test [9] was 80 to 100% in each case. Besides, in test [4], the pest or weed control at 500 ppm fell in the range of 80 to 100%. In addition, the mortality at 250 µg/mL in [10] was below 50%.
